Measured values published in patent US10190119B2, “Mitochondrial phosphate carrier targets for treating soft-tissue calcification” (THE BRIGHAM AND WOMEN'S HOSPITAL, INC., priority 2014, dated 2019).

Tested on: calcifying extracellular vesicles (EVs)
Assay: Aggregation of calcifying extracellular vesicles in a particle counting device
Conditions: 100 μM NEM, vesicles from smooth muscle cells cultured in calcifying conditions, cell-free, 37° C., FIG. 5
Procedure: Calcification has been previously linked to aggregation of extracellular vesicles. Therefore, vesicles were collected from smooth muscle cells cultured in calcifying conditions and incubated in cell-free conditions at 37° C. within a particle counting device. […] Aggregation of calcifying vesicles was observed by a reduction in total particles counted from 8 h to 20 h of incubation, as shown in FIG. 5. […] Without wishing to be bound by theory, it is hypothesized that this reduction is due to the inhibition of phosphate carriers on the vesicles, which blocks phosphate transport into the vesicles, and in turn preventing mineral formation.

## CCN1C(=O)C=CC1=O [NEM, N-ethylmaleimide]
  reduction in total particles (vesicle counts) from 8 h to 20 h of incubation: mitigated the reduction in vesicle counts
